The values below come from US8889708B2 (Boehringer Ingelheim International GmbH, priority 2013, dated 2014).

Series [1] concerns Neutrophil elastase activity in U937 cells. As to the kind of experiment: Neutrophil elastase activity in U937 cytosolic lysate after incubation with test compound. In kind it is cell-based. The following applies: Homo sapiens, U-937, U937 cells incubated 48 hours with compound, read-out: Reduction of NE-activity in U937 cells IC50. The method, then:
Determination of Neutrophil Elastase Activity in U937 Cytosolic Lysate Preparation after Incubation with Test Compound
Optiplate 384F were purchased from PerkinElmer (Prod. No. #6007270). 24well Nunclon cell culture plates (No. 142475) and 96well plates (No. 267245) were from Nunc. Dimethylsulfoxid (DMSO) was from Sigma (Prod. No. D8418). Nonidet-P40 (NP40) was from USBiological (Prod. No. N3500)
Substrate, specific for Neutrophil elastase, was from Bachem (MeOSuc-Ala-Ala-Pro-Val-AMC; Prod. No. I-1270).
Human neutrophil elastase was from Calbiochem (Prod. No. 324681)
Tris-buffer (100 mM Tris; 1M NaCL; pH 7.5)
Tris-buffer+HSA 0.1%; Human Serum Albumin from Calbiochem (Cat#. 126658)
Serine-protease buffer (20 mM Tris; 100 mM NaCL; pH 7.5)+0.1% HSA
Serine protease lysis buffer: 20 mM Tris-HCL; 100 mM NaCl pH 7.5; +0.2% Nonidet-P40;
PBS: phosphate buffered saline, without Ca and Mg, from Gibco
U937 from ECACC (Cat. No. 85011440) cultured in suspension at 37° C. and 5% CO2.
Cell density: 0.2-1 Mio. Cells/ml.
Medium: RPMI1640 GlutaMAX (No. 61870) with 10% FCS from Gibco
Cell Seeding and Treatment:
Compounds in 100% DMSO were diluted in Medium (—FCS) with 10% DMSO and further diluted according to the experiment planned.
20 μl of the compound solution was transferred in the respective wells of the 24 well plate and diluted with 2 ml cell suspension/well containing […] (final concentration of DMSO=0.1%). Compound dilution factor=100
Compounds (up to 7 concentrations) were tested in triplicates with 3 wells for the DMSO 0.1% control, incubatet for 48 hours without medium change at 37° C., 5% CO2 and 95% relative humidity.
Cell Harvesting and Cell Lysate:
Transfer the cell suspension in 2.2 ml Eppendorf cups. Separate cells from medium by centrifugation (400×g; 5 min; RT); discard the supernatant. Resuspend in 1 ml PBS; centrifugation (400×g; 5 min; RT); wash cells twice with PBS. Add 100 μl Serin lysis buffer (ice cold) to the cell pellet; resuspend the pellet and store on ice for 15 minutes. Remove debris by centrifugation at 15000×g for 10 min at 4° C. Transfer 80-100 μl lysate supernatant in 96well plate and store immediately at −80° C.
Neutrophil Elastase Activity Assay:
Frozen lysates were thawn at 37° C. for 10 minutes and stored on ice. Protein content was determined with Bradford protein assay. Lysates were diluted to 0.2-0.5 mg/ml protein in serine protease buffer+HSA.
Standard: NE ([…] stocksolution in Tris-buffer; stored at −80° C.) was diluted in Tris-buffer+HSA to 750 ng/ml, and further serially diluted 1:2 for the standard curve.
Buffer, blank, standard and lysate samples were transferred into 384 well plate
Blank: 5 μl Tris-buffer+10 μl Tris-buffer+HSA+5 μl Substrate
Standard: 5 μl Tris-buffer+10 μl NE (diff.conc.)+5 μl Substrate
Lysate: 5 μl Tris-buffer+10 μl Lysat+5 μl Substrate
The increase in fluorescence (Ex360 nm/Em 460 nm) is determined over 30 minutes with a Molecular Device Spectramax M5 Fluorescence Reader. Kinetic Reduction (Vmax units/sec); 4 vmax points. The amount of neutrophil elastase (ng/ml) is calculated using the standard curve and the Spectramax software. The result is interpolated to ng/mg lysate protein using excel formula functions. Percent inhibition in the compound-treated lysate samples is calculated relative to the DMSO-treated control-sample (100−(compound-sample*100)/control-sample)
IC50 is calculated using Graphpad Prism; nonlinear fitting (log(inhibitor) vs. response—Variable slope).

A short description of series [2]: Metabolic stability with human liver microsomes. In kind it is in vitro ADME. The following applies: pH 7.6; pooled human liver microsomes, 37° C., 1 μM test compound, 1 mg/ml protein, NADPH; read-out: In vitro stability in human liver microsome incubations t½. The protocol:
Determination of Metabolic Stability with Human Liver Microsomes
The metabolic degradation of the test compound is assayed at 37° C. with pooled human liver microsomes. The final incubation volume of 100 μl per time point contains TRIS buffer pH 7.6 (0.1 M), magnesium chloride (5 mM), microsomal protein (1 mg/ml) and the test compound at a final concentration of 1 μM. Following a short preincubation period at 37° C., the reactions are initiated by addition of beta-nicotinamide adenine dinucleotide phosphate, reduced form (NADPH, 1 mM) and terminated by transferring an aliquot into acetonitrile after different time points. Additionally, the NADPH-independent degradation is monitored in incubations without NADPH, terminated at the last time point. The [%] remaining test compound after NADPH independent incubation is reflected by the parameter c(control) (metabolic stability). The quenched incubations are pelleted by centrifugation (10,000 g, 5 min). An aliquot of the supernatant is assayed by LC-MS/MS for the amount of parent compound.
The half-life (t½ INVITRO) is determined by the slope of the semilogarithmic plot of the concentration-time profile. The intrinsic clearance (CL_[…]) is calculated by considering the amount of protein in the incubation: CL_[…][μl/min/mg protein]=(ln 2/(half-life[min]*protein content[mg/ml]))*1,000.
On the technique in general: Liver microsomes are a subcellular fraction often used to study metabolism.

pIC50: −log10 of the molar value.

On to `CC1(C)OC(=O)c2ccc(-c3ccc(C[C@@H](C#N)NC(=O)C45CCC(CC4)CN5)c(F)c3)cc21` [Example 27], for which the pIC50 – broadly, −log10 of the IC50, conventionally taken in molar units – in series [1] is 8.15. In series [2], the half-life at 1 μM was above 2.17 h.
For the molecule `CN1Cc2cc(-c3ccc(C[C@@H](C#N)NC(=O)C45CCC(CC4)CN5)cc3)ccc2C1=O` [Example 4], the pIC50 in series [1] is 7.07. In series [2], the half-life at 1 μM is above 2.17 h.
Consider `COCCN1C(=O)Cc2ccc(-c3ccc(C[C@@H](C#N)NC(=O)C45CCC(CC4)CN5)c(F)c3)cc21` [Example 26], for which the pIC50 in series [1] was 7.89. Further, in series [2], the half-life at 1 μM is above 2.17 h.
In the case of `CN1C(=O)Cc2ccc(-c3ccc(C[C@@H](C#N)NC(=O)C45CCC(CC4)CN5)cc3)cc21` [Example 2], the pIC50 in series [1] is 7.57. Moreover, in series [2], the half-life at 1 μM is above 2.17 h.
With `N#C[C@H](Cc1ccc(-c2ccc3c(c2)NC(=O)C3)cc1F)NC(=O)C12CCC(CC1)CN2` [Example 23], the pIC50 in series [1] is 7.48. Also, the half-life at 1 μM in series [2] is above 2.17 h.
Regarding `N#C[C@H](Cc1ccc(-c2ccc3c(c2)CCNC3=O)cc1F)NC(=O)C12CCC(CC1)CN2` [Example 22], the pIC50 in series [1] was 8.15. Moreover, the half-life at 1 μM in series [2] is above 2.17 h.
As for `CN1C(=O)Cc2ccc(-c3ccc(C[C@@H](C#N)NC(=O)C45CCC(CC4)CN5)c(F)c3)cc21` [Example 28], in series [1], the pIC50 was 7.89. In addition, the half-life at 1 μM in series [2] is above 2.17 h.
In the same order, the values of `CS(=O)(=O)c1ccc(-c2ccc(C[C@@H](C#N)NC(=O)C34CCC(CC3)CN4)c(F)c2)cc1` [Example 21, N-[(1S)-1-cyano-2-[2-fluoro-4-(4-methanesulfonylphenyl)phenyl]ethyl]-2-azabicyclo[2.2.2]octane-1-carboxamide] are 7.32 and above 2.17 h.
`N#C[C@H](Cc1ccc(-c2csc(C(N)=O)c2)cc1F)NC(=O)C12CCC(CC1)CN2` [Example 31]: the pIC50 in series [1] was 7.14. Further, the half-life at 1 μM in series [2] was above 2.17 h.
